In patent US6774132B1, “Spirooxindole derivatives that act as analgesics” (AstraZeneca AB, priority 1999, dated 2004) one finds melting point data, which are given here for one molecule.

The term melting point denotes the temperature, or range, at which the solid turns liquid.

Molecules are shown by their SMILES.

The molecule `CCCN1CCCC2(C1)NC(=O)c1ccccc12.Cl` (stereo not shown) gave a melting point of 110 to 112 °C.
